Test results from patent publication US20140088006A1, “Stem Cell Mobilization and Tissue Repair and Regeneration” (Wellstat Therapeutics Corporation, priority 2011, published 2014).
Where “and” joins values, the source holds several entries; their conditions need not be identical. Identical values can stand only once. No end group written: not given here.

Key:
[1] = Glucose level in db/db mice treated for 5 weeks; type: in vivo; details: for Glucose level in peripheral blood (nonfasting): 5 mg/kg s.c./i.v. for 5 weeks, individual mice; for Glucose level in peripheral blood, group mean: 5 mg/kg, high values set to 600 mg/dL
Method: Homozygous Leptin receptor-deficient diabetic db/db male mice—BKS.Cg-Dock7m+/+Leprdb/J (Jackson Laboratories, stock #000642) become obese at 3-4 weeks of age. Elevation of plasma insulin usually occurs at 10-14 days and elevation of blood glucose at 6-8 weeks of age. We examined the effects of Compound X on the onset of hyperglycemia in db/db mice. Continuous Compound X treatments were performed during 5 weeks.
At day 0, homozygous 7-week-old female db/db mice were divided into 2 experimental groups (n=10); both groups received subcutaneous injections for 5 consecutive days: Group 1 received 0.9% saline and group 2 received 5 mg/kg Compound X. The following week mice received intravenous injections for 4 consecutive days. The next two weeks mice received subcutaneous injections 3 times per week and the last week of treatment was given intravenously 3 times per week.
Nonfasting blood glucose levels were measured weekly from tail bleeds with a handheld glucometer. Animal body weights were taken throughout the course of the study.
At the end of experiment, serum from blood was obtained from the retro-orbital sinus after an overnight fast.

[2] = test system: peripheral blood cells; assay: FACS phenotype of peripheral blood cells after single subcutaneous injection; type: in vivo, C57Bl6 mice; details: for Phenotype Lin−/Sca-1+ / Phenotype Lin−/Sca-1−: mononuclear cells; for Phenotype CD19+ / Phenotype Gr-1 High / Phenotype Gr-1 Low: individual mice
Method: C57Bl6 male mice, from 8 weeks to 4 month of age, from Harlan were used. […] 20 μl of blood was removed from each tube for WBC counts;
200 μl of blood was used for FACS analysis of cells phenotypes: briefly 50 μl of blood was transferred to a 15 ml polypropylene tube containing 1 ml ACK lysis buffer and the tubes left at room temperature for 6 minutes. 50 μl of a 1:50 dilution of Fc block (Pharmingen 01241A) along with 2 ul of anti-CD19FITC (Pharmingen 09654A) and 2 μl of anti-Gr-1PE (Pharmingen 01215A) was added and the tubes left at room temperature for 30 minutes protected from light. The cells were washed with 3 ml FACS buffer, resuspended in 300 μl FACS buffer and kept on ice, protected from light until acquired on the FACSCalibur.
For flow cytometry analysis the blood was stained with antibodies and a phenotype determined by FACS as described before. In addition to the whole blood FACS phenotyping, Ficolled blood was also stained to monitor the Lin−/Sca+ phenotype. The cells were washed with 3 ml FACS buffer, resuspended in 300 μl FACS buffer and kept on ice, protected from light until acquired on the FACSCalibur

With “FPHFDLSHGSAQV [Compound X, tridecapeptide that acts on stem cells]” as the sequence, how does the “Glucose level in peripheral blood (nonfasting)” value (shortened to “Glucose level … (nonfasting)”) ([1]; Week 1) read?
Its value is 160 mg/dL and 121 mg/dL and 122 mg/dL and 235 mg/dL and 117 mg/dL and 178 mg/dL and 248 mg/dL and 119 mg/dL and 181 mg/dL and 194 mg/dL.

What about the “Glucose level … (nonfasting)” value ([1]; Week 2) of the same sequence?
Its value is 481 mg/dL and 377 mg/dL and 177 mg/dL and 472 mg/dL and 273 mg/dL and 452 mg/dL and 500 mg/dL and 189 mg/dL and 502 mg/dL and 430 mg/dL.

And the “Glucose level … (nonfasting)” value ([1]; Week 3)?
The value was 541 mg/dL (2×) and 447 mg/dL and 271 mg/dL and HI (High/Hi = ≧600 mg/dL, the maximum possible glucometer reading) and 546 mg/dL and 496 mg/dL and 474 mg/dL and 267 mg/dL and 463 mg/dL.

What about the “Glucose level … (nonfasting)” value ([1]; Week 4) of the same sequence?
Its value is 398 mg/dL and 416 mg/dL and 206 mg/dL and 599 mg/dL and 440 mg/dL and 458 mg/dL and 591 mg/dL and 257 mg/dL and HI (High/Hi = ≧600 mg/dL, the maximum possible glucometer reading) and 549 mg/dL.

And the “Glucose level … (nonfasting)” value ([1]; Week 5)?
Its value is 481 mg/dL and 443 mg/dL and 256 mg/dL and 527 mg/dL and 525 mg/dL and 582 mg/dL and 588 mg/dL and 467 mg/dL and HI (High/Hi = ≧600 mg/dL, the maximum possible glucometer reading) (2×).

And the “Glucose level … (nonfasting)” value ([1]; Week 6)?
The value was 400 mg/dL and 541 mg/dL and 265 mg/dL and 537 mg/dL and 576 mg/dL and HI (High/Hi = ≧600 mg/dL, the maximum possible glucometer reading) (4×) and 457 mg/dL.

What about the “Glucose level in peripheral blood, group mean” value (“Glucose level … group mean” for short) ([1]; Week 1) of the same sequence?
The value was 168 ± 15 mg/dL.

And the “Glucose level … group mean” value ([1]; Week 2)?
Its value is 385 ± 40 mg/dL.

And the “Glucose level … group mean” value ([1]; Week 3)?
The value was 465 ± 36 mg/dL.

What about the “Glucose level … group mean” value ([1]; Week 4) of the same sequence?
The value was 451 ± 44 mg/dL.

And the “Glucose level … group mean” value ([1]; Week 5)?
Its value is 506 ± 33 mg/dL.

What about the “Glucose level … group mean” value ([1]; Week 6) of the same sequence?
Its value is 517 ± 35 mg/dL.

What about the “nonfasting glucose level compared to Saline control” value ([1]; at all timepoints) of the same sequence?
Its value is “decreased glucose level”.

And the “mice with lower than 200 mg/dL fasting serum glucose” value ([1]; end of the 5-week study)?
Its value is 2 mice.

What about the “mice with overnight fasting serum glucose <300 mg/dL” value ([1]; end of the 5-week study, vehicle 3/10) of the same sequence?
Its value is 7/10.

What about the “Phenotype Lin−/Sca-1+” value ([2]; 50 μg/kg, 1-hour) of the same sequence?
The value was 0.4%.

And the “Phenotype Lin−/Sca-1−” value ([2]; 50 μg/kg, 1-hour)?
Its value is 0.8%.

And the “Phenotype Lin−/Sca-1+” value ([2]; 50 μg/kg, 30-min)?
Its value is 0.5%.

What about the “Phenotype Lin−/Sca-1−” value ([2]; 50 μg/kg, 30-min) of the same sequence?
The value was 1.0%.

What about the “Phenotype Lin−/Sca-1+” value ([2]; 250 μg/kg, 1-hour) of the same sequence?
The value was 0.8%.

And the “Phenotype Lin−/Sca-1−” value ([2]; 250 μg/kg, 1-hour)?
Its value is 1.1%.

And the “Phenotype Lin−/Sca-1+” value ([2]; 250 μg/kg, 30-min)?
The value was 0.6%.

What about the “Phenotype Lin−/Sca-1−” value ([2]; 250 μg/kg, 30-min) of the same sequence?
The value was 1.1%.

And the “Phenotype CD19+” value ([2]; s.c. 50 μg/kg, 1 hr)?
The value was 38.3% and 41.0% and 29.6%.

What about the “Phenotype Gr-1 High” value ([2]; s.c. 50 μg/kg, 1 hr) of the same sequence?
Its value is 26.0% and 27.7% and 29.4%.

And the “Phenotype Gr-1 Low” value ([2]; s.c. 50 μg/kg, 1 hr)?
Its value is 3.5% (2×) and 7.0%.

What about the “Phenotype CD19+” value ([2]; s.c. 50 μg/kg, 4 hr) of the same sequence?
The value was 33.9% and 40.9% and 29.1%.

And the “Phenotype Gr-1 High” value ([2]; s.c. 50 μg/kg, 4 hr)?
Its value is 25.0% and 16.7% and 29.1%.

And the “Phenotype Gr-1 Low” value ([2]; s.c. 50 μg/kg, 4 hr)?
The value was 6.2% and 7.6% and 5.3%.

And the “Phenotype CD19+” value ([2]; s.c. 250 μg/kg, 1 hr)?
The value was 14.8% and 4.8% and 14.5%.

And the “Phenotype Gr-1 High” value ([2]; s.c. 250 μg/kg, 1 hr)?
The value was 55.2% and 18.7% and 6.8%.

And the “Phenotype Gr-1 Low” value ([2]; s.c. 250 μg/kg, 1 hr)?
The value was 3.5% and 2.1% and 2.4%.

And the “Phenotype CD19+” value ([2]; s.c. 250 μg/kg, 4 hr)?
Its value is 46.7% and 48.5% and 46.6%.

And the “Phenotype Gr-1 High” value ([2]; s.c. 250 μg/kg, 4 hr)?
The value was 16.1% and 12.9% and 11.7%.

What about the “Phenotype Gr-1 Low” value ([2]; s.c. 250 μg/kg, 4 hr) of the same sequence?
The value was 5.1% and 5.5% and 6.6%.

What about the “mobilization of lineage negative progenitors” value ([2]; s.c. 50 or 250 μg/kg, 30 min and 1 hr) of the same sequence?
Its value is “did not have such an effect”.
